The text below walks through data of PMC5872150 (ACS chemical neuroscience, 2017).

One experiment has as its target T1, human M1 mAChR (Homo sapiens, UniProt P11229).
T1 sequence (P11229 1-460): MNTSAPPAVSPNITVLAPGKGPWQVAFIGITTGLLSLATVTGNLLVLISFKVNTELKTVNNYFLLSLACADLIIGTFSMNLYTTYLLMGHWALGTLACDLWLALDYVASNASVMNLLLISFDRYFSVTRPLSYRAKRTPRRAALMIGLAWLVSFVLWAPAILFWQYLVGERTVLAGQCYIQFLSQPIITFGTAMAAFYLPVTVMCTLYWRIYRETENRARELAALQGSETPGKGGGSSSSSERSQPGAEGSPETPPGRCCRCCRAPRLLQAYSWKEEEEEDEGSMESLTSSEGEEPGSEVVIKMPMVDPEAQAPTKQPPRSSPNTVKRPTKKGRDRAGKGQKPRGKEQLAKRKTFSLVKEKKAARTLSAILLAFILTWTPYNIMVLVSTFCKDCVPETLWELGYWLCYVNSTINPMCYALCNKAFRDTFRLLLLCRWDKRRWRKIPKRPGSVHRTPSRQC

Another experiment deals with human α7 nAChR (Homo sapiens, UniProt P36544). The settings on record: for inhibition of acetylcholine-induced inward current: acetylcholine 1 mM.
human α7 nAChR, sequence (P36544 23-502): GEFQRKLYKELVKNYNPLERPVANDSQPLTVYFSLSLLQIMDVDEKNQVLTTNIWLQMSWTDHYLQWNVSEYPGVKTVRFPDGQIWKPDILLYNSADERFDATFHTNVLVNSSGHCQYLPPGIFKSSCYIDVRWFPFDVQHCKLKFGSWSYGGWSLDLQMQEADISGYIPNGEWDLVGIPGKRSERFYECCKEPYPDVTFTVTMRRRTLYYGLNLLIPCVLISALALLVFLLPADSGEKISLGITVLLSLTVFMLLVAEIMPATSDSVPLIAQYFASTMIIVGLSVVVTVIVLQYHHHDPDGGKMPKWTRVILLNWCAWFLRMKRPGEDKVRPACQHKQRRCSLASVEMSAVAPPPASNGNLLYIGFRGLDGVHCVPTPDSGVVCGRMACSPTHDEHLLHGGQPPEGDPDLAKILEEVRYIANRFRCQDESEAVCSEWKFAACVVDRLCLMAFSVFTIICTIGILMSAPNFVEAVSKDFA
The test system of experiment [1] is pilocarpine-induced seizures in C57BL/6 mice. In words: Pilocarpine-induced seizures. Type of experiment: in vivo, mouse.
For experiment [2], the system named is pilocarpine-induced total fluid secretion in C57BL/6 mice. To be noted: s.c., pilocarpine 50 mg/kg i.p.
A further experiment concerns CHO-hM1 cells. As to the kind of experiment: Ca2+ assay features: Fluo-4 fluorescent signal of CHO-hM1 cells. Type of experiment: cell-based, Chinese hamster. The settings on record: bath application.

Where a name gives a salt, the structure may show the parent alone. Read-outs that look alike come from different tables or passages of the source.

As to ethylatropine bromide, at human M1 mAChR, the “fold less potent than atropine at human M1 muscarinic receptors” value is listed as “approximately 3.3 fold”. Moreover, the “inhibition of acetylcholine-induced inward current” value on human α7 nAChR (3 μM, n = 3) was determined as 1.2 ± 8%; at human α7 nAChR (30 μM, n = 5) it was 29 ± 3%; on human α7 nAChR (300 μM, n = 4), 46 ± 2%. For the same compound, the “fold less potent than atropine sulfate at α7 nicotinic receptors” value at human α7 nAChR (ratio of estimated IC50s) is on record as about 300 fold. The “time to behavior score 3 after pilocarpine administration” value in experiment [1] (100 mg/kg s.c. 25 min before pilocarpine 278 mg/kg, all six mice) is given as at most 30 min. Besides, the “effect on pilocarpine-induced seizures” value in experiment [1] (100 mg/kg s.c. 25 min before pilocarpine 278 mg/kg, six mice) is given as “experienced at least one tonic seizure”. Moreover, the “approximate IC50 for attenuation of pilocarpine-induced total secretion” value in experiment [2] is given as about 0.3 mg/kg.
For the compound `C/C=C(/C)C(=O)O[C@H]1C(C)=C2[C@H]([C@@H]1OC(=O)CCCCCCC)[C@@](C)(OC(C)=O)C[C@H](OC(=O)CCC)[C@@]1(O)[C@H]2OC(=O)[C@@]1(C)O` [Thapsigargin], in the experiment on CHO-hM1 cells (thapsigargin 1 μM), the “effect on Ca2+-dependent fluorescent counts” value is “smaller and slower increase in the fluorescent counts”.
Consider `CN1[C@@H]2CC[C@H]1C[C@@H](OC(=O)C(CO)c1ccccc1)C2` (some centres unmarked) [atropine sulfate, Atropine sulfate monohydrate, reference compound], for which the “effect on pilocarpine-induced seizures” value in experiment [1] (3 mg/kg s.c. 25 min before pilocarpine 278 mg/kg) is “blocked the development of seizures in every mouse”.
In the case of `Nc1ncnc2c1ncn2[C@@H]1O[C@H](COP(=O)(O)OP(=O)(O)OP(=O)(O)O)[C@@H](O)[C@H]1O` [ATP], the “effect on Ca2+-dependent fluorescent counts” value in the experiment with CHO-hM1 cells (ATP 100 μM) is “rapidly increased the fluorescent counts”.
